Results reported in ChEMBL document CHEMBL1201862, “PubChem BioAssay data set” (2004).
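Cells were grown in 96-well plates and exposed to each compound for 48 hours at five concentrations; endpoints were interpolated linearly between bracketing concentrations, or set to the highest concentration if not reached. The concentration for 50% growth inhibition is given as GI50.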 The source made the active and inactive calls. Rule as the data show it: active = GI50 up to about 1.1 µM and inactive = higher.

Assays:
Assay in all cases: inhibition of tumour cell growth, NCI panel, 48 h
[1] = test system: KM12
[2] = test system: HL-60
[3] = test system: HOP-92
[4] = test system: SK-OV-3
[5] = test system: HCT-15
[6] = test system: K562
[7] = test system: SK-MEL-2
[8] = test system: U-251
[9] = test system: COLO 205
[10] = test system: SR
[11] = test system: M14
[12] = test system: OVCAR-5
[13] = test system: LOX IMVI
[14] = test system: CAKI-1
[15] = test system: SNB-75
[16] = test system: HT-29

SMILES | GI50 [1] | GI50 [2] | GI50 [3] | GI50 [4] | GI50 [5] [µM] | GI50 [6] | GI50 [7] | GI50 [8] | GI50 [9] | GI50 [10] | GI50 [11] | GI50 [12] | GI50 [13] | GI50 [14] | GI50 [15] | GI50 [16]
O=C1Sc2ccccc2C(=O)N2CCSC12 (stereo unspecified) | > 100 µM (inactive) | 82.6 µM (inactive) | > 100 µM (inactive) | > 100 µM (inactive) | > 100 | > 100 µM (inactive) | > 100 µM (inactive) | > 100 µM (inactive) | > 100 µM (inactive) | > 100 µM (inactive) | > 100 µM (inactive) | > 100 µM (inactive) | > 100 µM (inactive) | – | – | –
CCOC(=O)C1=C(C(C)=O)CSC(c2ccccc2)=N1 | > 100 µM (inactive) | > 100 µM (inactive) | > 100 µM (inactive) | > 100 µM (inactive) | > 100 | > 100 µM (inactive) | > 100 µM (inactive) | > 100 µM (inactive) | > 100 µM (inactive) | – | – | > 100 µM (inactive) | > 100 µM (inactive) | > 100 µM (inactive) | > 100 µM (inactive) | > 100 µM (inactive)
O=C(c1ccccc1O)c1cc(-c2ncc3c(=O)c4ccccc4oc3n2)c(-c2ccccc2O)[nH]c1=O | 30 µM (inactive) | 24.9 µM (inactive) | 23.4 µM (inactive) | 25.9 µM (inactive) | 24.9 | 19.7 µM (inactive) | 22.1 µM (inactive) | – | 31.9 µM (inactive) | – | – | 24 µM (inactive) | 18.6 µM (inactive) | 8.02 µM (inactive) | 19.2 µM (inactive) | 28.2 µM (inactive)
COc1cccc(-c2nc3c(C(=O)NCCN(C)C)cccc3[nH]2)c1 | 20.8 µM (inactive) | 15.7 µM (inactive) | 18.5 µM (inactive) | 21.3 µM (inactive) | 18.9 | 15.1 µM (inactive) | 18.8 µM (inactive) | 23.8 µM (inactive) | 10 µM (inactive) | – | – | 19.1 µM (inactive) | 13.3 µM (inactive) | 16 µM (inactive) | 21.3 µM (inactive) | 11 µM (inactive)
COC(=O)C(CC(=O)c1cc2c(cc1I)OCO2)Cc1cc(OC)c(OC)c(OC)c1I (stereo unspecified) | 71.6 µM (inactive) | 16.7 µM (inactive) | 14.3 µM (inactive) | > 100 µM (inactive) | > 100 | > 100 µM (inactive) | > 100 µM (inactive) | 65.6 µM (inactive) | > 100 µM (inactive) | 8.69 µM (inactive) | – | 2.88 µM (inactive) | > 100 µM (inactive) | 25 µM (inactive) | – | > 100 µM (inactive)
COC(=O)C(C/C=C(\C)c1ccccc1)C(C)=O (stereo unspecified) | 58.2 µM (inactive) | 21.4 µM (inactive) | 17.1 µM (inactive) | > 100 µM (inactive) | 66.1 | 44.9 µM (inactive) | 52.7 µM (inactive) | 57.5 µM (inactive) | > 81.8 µM (inactive) | – | – | > 100 µM (inactive) | 68.2 µM (inactive) | – | 47.3 µM (inactive) | 83.9 µM (inactive)
CC(=O)c1ccc(OCC(O)CO)cc1 (stereo unspecified) | > 100 µM (inactive) | > 100 µM (inactive) | > 100 µM (inactive) | > 100 µM (inactive) | > 100 | 61.9 µM (inactive) | – | 49.8 µM (inactive) | 35.6 µM (inactive) | – | > 100 µM (inactive) | > 100 µM (inactive) | – | > 100 µM (inactive) | > 100 µM (inactive) | 61.4 µM (inactive)
O=C(CC1(O)C(=O)Nc2ccccc21)c1ccc2ccccc2c1 (stereo unspecified) | – | > 100 µM (inactive) | > 100 µM (inactive) | > 100 µM (inactive) | > 100 | > 100 µM (inactive) | > 100 µM (inactive) | – | > 100 µM (inactive) | – | > 100 µM (inactive) | > 100 µM (inactive) | > 100 µM (inactive) | > 100 µM (inactive) | 78 µM (inactive) | > 100 µM (inactive)
COC(=O)CC(=O)OSc1ccccc1 | 25.5 µM (inactive) | – | 17.7 µM (inactive) | 21.1 µM (inactive) | – | 35.2 µM (inactive) | 34.6 µM (inactive) | 3.48 µM (inactive) | 19.5 µM (inactive) | 6.03 µM (inactive) | 17.6 µM (inactive) | 45 µM (inactive) | 12.6 µM (inactive) | – | – | –
O=c1c2cc([N+](=O)[O-])ccc2sc2ccsc12 | > 100 µM (inactive) | > 100 µM (inactive) | > 100 µM (inactive) | > 100 µM (inactive) | > 100 | > 100 µM (inactive) | > 100 µM (inactive) | > 100 µM (inactive) | > 100 µM (inactive) | – | > 100 µM (inactive) | > 100 µM (inactive) | > 100 µM (inactive) | – | > 100 µM (inactive) | > 100 µM (inactive)
COC(=O)[C@]1(c2ccc(N(C)C)cc2OC)C[C@@H]2CCCN(CCc3c1[nH]c1ccccc31)C2 | 23.1 µM (inactive) | 11.7 µM (inactive) | 10.7 µM (inactive) | > 47 µM (inactive) | 20.8 | 17.3 µM (inactive) | 20.3 µM (inactive) | 19.1 µM (inactive) | 13.8 µM (inactive) | – | – | > 60.4 µM (inactive) | > 43.7 µM (inactive) | 54.1 µM (inactive) | 12.4 µM (inactive) | 15 µM (inactive)
Cc1cccc(C)c1NC(=O)CCc1nnc(S)[nH]1 | – | > 100 µM (inactive) | > 100 µM (inactive) | > 100 µM (inactive) | > 100 | > 100 µM (inactive) | > 100 µM (inactive) | > 100 µM (inactive) | > 100 µM (inactive) | – | > 100 µM (inactive) | > 100 µM (inactive) | > 100 µM (inactive) | > 100 µM (inactive) | > 100 µM (inactive) | –
CCCCCCCCOCC(O)COC(=O)CCCCCCC (stereo unspecified) | – | 32.4 µM (inactive) | 25.2 µM (inactive) | > 100 µM (inactive) | > 100 | 31.2 µM (inactive) | – | > 100 µM (inactive) | 79.3 µM (inactive) | 17.4 µM (inactive) | > 100 µM (inactive) | > 100 µM (inactive) | > 100 µM (inactive) | > 100 µM (inactive) | – | > 100 µM (inactive)
Cc1ccc(C)c(NC(=O)C(=O)CC(=O)C2CCOC2=O)c1 (stereo unspecified) | > 100 µM (inactive) | > 100 µM (inactive) | > 100 µM (inactive) | > 100 µM (inactive) | > 100 | > 100 µM (inactive) | > 100 µM (inactive) | > 100 µM (inactive) | > 100 µM (inactive) | – | > 100 µM (inactive) | > 100 µM (inactive) | > 100 µM (inactive) | > 100 µM (inactive) | 67.5 µM (inactive) | > 100 µM (inactive)
Nc1ccc(N)c2c1C(=O)c1ccccc1C2=O | 4.54 µM (inactive) | – | 36.2 µM (inactive) | 2.49 µM (inactive) | 4.41 | 27.6 µM (inactive) | 79.1 µM (inactive) | 17.3 µM (inactive) | 17.8 µM (inactive) | – | 17.7 µM (inactive) | > 100 µM (inactive) | 9.02 µM (inactive) | 4.57 µM (inactive) | > 100 µM (inactive) | 57.9 µM (inactive)
